The test system of one series is HaloTag protein tag. Kind of series: Probe mixed with HaloTag protein tag, fluorescence spectrophotometer (Example 86). The class given is biochemical. The conditions noted are these: 5 μM probe, 10 μM protein tag, 37° C., 1 hour; for Fluorescence enhancement: fluorescence activation multiple after binding protein tag; for Emission/nm: fluorescence emission wavelength. The method, then: (§1) A probe was mixed with a corresponding HaloTag protein tag to obtain a mixed sample. The final concentration of the probe in the mixed sample was 5 μM and the final concentration of the protein tag was 10 μM. The mixed sample was incubated at 37° C. for 1 hour, and the sample was detected using a fluorescence spectrophotometer.

The nature of series [1]: Quantum yield of free probe not reacted with protein tag. It counts as physicochemical. As for the experimental part: as §1
The nature of series [2]: Viscosity responsiveness: fluorescence intensity in glycerol versus methanol. It counts as physicochemical. The conditions noted are these: fluorescence intensity in glycerol to that in methanol. The method, then: The above-mentioned viscosity-responsive fluorescent dye means that the fluorescence intensity of the dye responds to the viscosity of the solution. As the viscosity of the solution increases, the fluorescence intensity increases. Optionally, the viscosity-responsive fluorescent dye is an organic dye molecule which, under the same concentration and excitation wavelength, at 25° C. has a ratio • of the maximum fluorescence emission intensity of the dye in glycerol to the fluorescence intensity in methanol of greater than 2, optionally greater than 5, optionally greater than 10. The concentration of the viscosity-responsive dye ranges from 1×10^−7 M to 1×10^−5 M.

This note sets out measurements from US12492337B2, “Fluorescent probe, preparation method therefor and use thereof” (FLUORESCENCE DIAGNOSIS (SHANGHAI) BIOTECH COMPANY, priority 2017, dated 2025).

For `CN(C)c1ccc2c(c1)C(C)(C)c1cc(/C=C(\C#N)C(=O)NCCOCCOCCCCCCCl)sc1-2` [Probe 86], in the series with HaloTag protein tag, the “The quantum yield after binding to Halo-tag” value was 0.52, the Fluorescence enhancement was found to be 618 and the Emission/nm is on record as 550 nm. Besides, the “The quantum yield of the free probe” value in series [1] is 0.0012. In series [2], the ratio stood at 470.
The like results for `CN(C)c1cc2c(s1)-c1sc(/C=C3\SC(=S)N(CCOCCOCCCCCCCl)C3=O)cc1C2(C)C` [Probe 79] were, in that order, 0.51, 419, 725 nm, <0.001 and 498.
For `CNc1ccc2cc(/C=C(\C#N)C(=O)NCCOCCOCCCCCCCl)sc2c1` [Probe 66], in that order: 0.53, 512, 550 nm, <0.001 and 386.
As for `CN(CCOC(=O)NCCOCCOCCCCCCCl)c1ccc(-c2ccc(/C=C(\C#N)C(=O)OC(C)(C)C)s2)s1` [Probe 40], in the series on HaloTag protein tag, the “The quantum yield after binding to Halo-tag” value was 0.47, the Fluorescence enhancement was found to be 421 and the Emission/nm was 657 nm. The “The quantum yield of the free probe” value in series [1] came out at 0.001. In addition, the ratio in series [2] was 759.
For `CN(CCOC(=O)NCCOCCOCCCCCCCl)c1ccc2nc(/C=C(\C#N)C(=O)OC(C)(C)C)sc2c1` [Probe 24], in that order: 0.52, 590, 622 nm, <0.001 and 1681.
For the molecule `CC(C)(C)OC(=O)/C(C#N)=C/c1cc2ccc(N(CCO)CCOC(=O)NCCOCCOCCCCCCCl)cc2s1` [Probe 15], in the series on HaloTag protein tag, the “The quantum yield after binding to Halo-tag” value came out at 0.53, the Fluorescence enhancement stood at 379 and the Emission/nm is 570 nm. Further, in series [1], the “The quantum yield of the free probe” value was <0.001. Further, the ratio in series [2] was found to be 320.
For `CC1=CC(C)(C)N(CCOC(=O)NCCOCCOCCCCCCCl)c2ccc(/C=C(\C#N)C(=O)O)cc21` [Probe 47], in that order: 0.45, 358, 523 nm, <0.001 and 235.
The like results for `CC1=CC(C)(C)N(CCOC(=O)NCCOCCOCCCCCCCl)c2ccc(/C=C(\C#N)C(=O)OC(C)(C)C)cc21` [Probe 46] were, in that order, 0.58, 563, 520 nm, <0.001 and 682.
Take `CN(CCOC(=O)NCCOCCOCCCCCCCl)c1cc2sc(/C=C(\C#N)c3nc4ccccc4o3)cc2s1` [Probe 11]: in the series with HaloTag protein tag, the “The quantum yield after binding to Halo-tag” value was determined as 0.46, the Fluorescence enhancement turned out to be 520 and the Emission/nm is reported as 590 nm. Also, the “The quantum yield of the free probe” value in series [1] came out at 0.0013. For the same molecule, the ratio in series [2] is on record as 422.
The like results for `CN(CCOC(=O)NCCOCCOCCCCCCCl)c1ccc2nc(/C=C(\C#N)C(=O)OC(C)(C)C)ccc2c1` [Probe 26] were, in that order, 0.56, 910, 590 nm, <0.001 and 1123.
For `COCCNC(=O)/C(C#N)=C/c1ccc(-c2ccc(N(C)CCOC(=O)NCCOCCOCCCCCCCl)s2)s1` [Probe 41], in that order: 0.44, 418, 700 nm, 0.0015 and 101.
